Laboratory results published in patent US11834454B2, “Alkynylphenylbenzamide compounds and applications thereof” (SHENZHEN NEWDEL BIOTECH CO., LTD., priority 2021, dated 2023).
pIC50: −log10 of the molar value.

Tests used:
TRKC = target: T1, TRKC (Homo sapiens, UniProt Q16288); experiment: Z'-LYTE kinase activity detection, TRKC; type: biochemical
T1 construct: purchased American Life Technologies PV3617

TRKB = target: T2, TRKB (Homo sapiens, UniProt Q16620); experiment: Z'-LYTE kinase activity detection, TRKB; type: biochemical
T2 construct: purchased American Life Technologies PV3616

BaF3-CD74-NTRK1 = target: T3, BaF3-CD74-NTRK1 (Homo sapiens, UniProt P04629); experiment: Cell proliferation inhibition, Ba/F3-TRKs stable strain (CCK-8); type: cell-based, mouse; conditions: 72 hours, read-out: cell viability IC50 CD74-NTRK1
T3 construct: fused on or other part: P04233 (HLA class II histocompatibility antigen gamma chain)
From the text: (§1) The BaF3 cells (mouse pre-B cells) used in this experiment were purchased from the Japanese Cell Bank. All of the monoclonal stable strains, BaF3-CD74-NTRK1, BaF3-ETV6-NTRK2 and BaF3-ETV6-NTRK3 were constructed by our laboratory, and were identified by experiments such as positive control, protein expression and gene sequencing.
(§2) The brief steps of stable strain construction were as follows: constructed pCDNA3.1(+) plasmid vector carrying genes such as CD74-NTRK1, ETV6-NTRK2, ETV6-NTRK3; the plasmid was electroporated into Ba/F3 cells using Amaxa® Cell Line Nucleofector® Kit V; 48 hours after electroporation, geneticin (G418) with a final concentration of 1000 μg/mL was added to screen for two weeks, and the interleukin 3 (IL3) was removed to continue screening to obtain polyclonal stable strains; and then single clones were selected by limiting dilution method; the stable strains were then identified by the positive drugs, Western Blot (WB), and gene sequencing; the correct monoclonal through identification can be used to study the cell proliferation inhibitory activity of the inhibitors.
(§3) Cell proliferation inhibitory activity study: The cells in logarithmic growth phase were seeded into 96-well plates at 8000-12000 cells/well, and the inhibitors at different concentrations of (0-10 μM) were added the next day, and the culture was continued for 72 hours; then 10 μL of Cell Counting Kit-8 Cell Counting Reagent (CCK-8 Reagent) was added to each well, and continued to incubate for 1-3 hours; then its absorbance at 450 nm and 650 nm were measured with a super microplate reader. The median inhibitory concentration (IC50) was calculated using medical graphing software (GraphPad Prism 8.0.0).

BaF3-ETV6-NTRK3 = target: T4, BaF3-ETV6-NTRK3 (Homo sapiens, UniProt Q16288); experiment: as above; type: cell-based, mouse; conditions: 72 hours, read-out: cell viability IC50 ETV6-NTRK3
T4 construct: fused on or other part: P41212 (Transcription factor ETV6)
From the text: as §1, §2, §3

BaF3-ETV6-NTRK2 = target: T5, BaF3-ETV6-NTRK2 (Homo sapiens, UniProt Q16620); experiment: as above; type: cell-based, mouse; conditions: 72 hours, read-out: cell viability IC50 ETV6-NTRK2
T5 construct: fused on or other part: P41212 (Transcription factor ETV6)
From the text: as §1, §2, §3

TRKA = target: T6, TRKA (Homo sapiens, UniProt P04629); experiment: Z'-LYTE kinase activity detection, TRKA; type: biochemical
T6 construct: purchased American Life Technologies PV3144
T6 sequence (P04629 33-796): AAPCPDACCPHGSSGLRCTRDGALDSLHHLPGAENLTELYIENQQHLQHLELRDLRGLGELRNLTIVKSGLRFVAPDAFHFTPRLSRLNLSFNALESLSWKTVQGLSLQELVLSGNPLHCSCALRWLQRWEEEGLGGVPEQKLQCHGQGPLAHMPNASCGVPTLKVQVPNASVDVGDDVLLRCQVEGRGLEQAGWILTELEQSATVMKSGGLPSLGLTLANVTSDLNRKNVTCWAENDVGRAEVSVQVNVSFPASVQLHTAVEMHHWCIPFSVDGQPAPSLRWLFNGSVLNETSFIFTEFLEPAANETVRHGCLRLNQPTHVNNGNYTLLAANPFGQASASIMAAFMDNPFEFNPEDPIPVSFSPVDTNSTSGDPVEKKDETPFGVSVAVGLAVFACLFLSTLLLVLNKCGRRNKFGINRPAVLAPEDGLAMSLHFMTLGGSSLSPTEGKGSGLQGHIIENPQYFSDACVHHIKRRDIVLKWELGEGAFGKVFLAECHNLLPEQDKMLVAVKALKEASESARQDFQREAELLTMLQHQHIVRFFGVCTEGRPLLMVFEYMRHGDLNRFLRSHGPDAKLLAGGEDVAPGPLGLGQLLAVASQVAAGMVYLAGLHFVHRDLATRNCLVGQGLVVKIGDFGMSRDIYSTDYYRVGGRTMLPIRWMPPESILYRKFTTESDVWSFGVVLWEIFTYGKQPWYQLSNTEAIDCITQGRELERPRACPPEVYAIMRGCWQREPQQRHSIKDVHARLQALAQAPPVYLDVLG

T2 sequence (Q16620 32-822): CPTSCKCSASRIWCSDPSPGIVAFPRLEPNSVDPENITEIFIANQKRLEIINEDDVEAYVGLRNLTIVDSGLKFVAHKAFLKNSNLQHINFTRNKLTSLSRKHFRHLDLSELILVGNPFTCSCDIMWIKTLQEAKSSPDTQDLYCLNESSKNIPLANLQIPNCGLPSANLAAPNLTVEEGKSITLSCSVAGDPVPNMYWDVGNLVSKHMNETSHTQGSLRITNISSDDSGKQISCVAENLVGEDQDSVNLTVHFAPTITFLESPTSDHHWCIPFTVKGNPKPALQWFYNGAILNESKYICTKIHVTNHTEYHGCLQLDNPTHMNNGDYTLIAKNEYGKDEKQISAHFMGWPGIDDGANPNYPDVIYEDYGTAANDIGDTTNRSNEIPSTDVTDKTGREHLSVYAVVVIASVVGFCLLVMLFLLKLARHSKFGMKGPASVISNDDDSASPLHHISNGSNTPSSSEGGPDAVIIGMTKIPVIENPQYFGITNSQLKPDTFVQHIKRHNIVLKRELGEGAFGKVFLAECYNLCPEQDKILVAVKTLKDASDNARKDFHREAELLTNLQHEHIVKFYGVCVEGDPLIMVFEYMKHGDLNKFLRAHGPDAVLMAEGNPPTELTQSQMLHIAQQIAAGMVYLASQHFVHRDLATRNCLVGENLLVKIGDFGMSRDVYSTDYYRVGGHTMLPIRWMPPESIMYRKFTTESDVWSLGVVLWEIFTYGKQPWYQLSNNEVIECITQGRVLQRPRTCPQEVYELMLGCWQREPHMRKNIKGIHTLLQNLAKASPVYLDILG
T1 sequence (Q16288 32-839): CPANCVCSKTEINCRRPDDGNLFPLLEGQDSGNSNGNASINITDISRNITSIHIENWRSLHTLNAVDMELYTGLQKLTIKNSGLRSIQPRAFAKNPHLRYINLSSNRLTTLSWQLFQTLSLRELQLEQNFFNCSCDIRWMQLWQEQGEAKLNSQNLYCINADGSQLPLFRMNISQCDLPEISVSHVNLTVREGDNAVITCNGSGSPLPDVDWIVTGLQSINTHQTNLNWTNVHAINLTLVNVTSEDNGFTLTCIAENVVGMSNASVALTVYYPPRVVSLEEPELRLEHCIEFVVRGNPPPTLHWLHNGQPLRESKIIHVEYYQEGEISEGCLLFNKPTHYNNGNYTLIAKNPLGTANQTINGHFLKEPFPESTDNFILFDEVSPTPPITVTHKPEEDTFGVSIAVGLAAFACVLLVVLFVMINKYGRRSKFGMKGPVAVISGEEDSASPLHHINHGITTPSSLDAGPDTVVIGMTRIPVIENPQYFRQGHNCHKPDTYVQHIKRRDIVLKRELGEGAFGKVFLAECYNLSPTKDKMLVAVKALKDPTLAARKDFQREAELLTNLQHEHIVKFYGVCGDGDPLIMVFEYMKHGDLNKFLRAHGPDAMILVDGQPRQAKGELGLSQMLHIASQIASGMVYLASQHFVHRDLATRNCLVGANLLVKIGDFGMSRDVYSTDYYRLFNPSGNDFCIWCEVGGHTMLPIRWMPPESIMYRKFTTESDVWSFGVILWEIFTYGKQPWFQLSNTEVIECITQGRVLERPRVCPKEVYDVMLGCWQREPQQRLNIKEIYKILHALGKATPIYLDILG
T3 sequence (P04629 510-796 limits assumed): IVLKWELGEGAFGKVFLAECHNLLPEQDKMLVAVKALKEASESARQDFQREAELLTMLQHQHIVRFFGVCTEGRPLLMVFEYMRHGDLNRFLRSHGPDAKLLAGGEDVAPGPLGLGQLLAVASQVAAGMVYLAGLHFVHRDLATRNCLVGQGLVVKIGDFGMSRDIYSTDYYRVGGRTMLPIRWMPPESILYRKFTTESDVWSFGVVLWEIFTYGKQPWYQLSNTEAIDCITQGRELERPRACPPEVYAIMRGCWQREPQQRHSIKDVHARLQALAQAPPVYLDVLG
T5 sequence (Q16620 538-822 limits assumed): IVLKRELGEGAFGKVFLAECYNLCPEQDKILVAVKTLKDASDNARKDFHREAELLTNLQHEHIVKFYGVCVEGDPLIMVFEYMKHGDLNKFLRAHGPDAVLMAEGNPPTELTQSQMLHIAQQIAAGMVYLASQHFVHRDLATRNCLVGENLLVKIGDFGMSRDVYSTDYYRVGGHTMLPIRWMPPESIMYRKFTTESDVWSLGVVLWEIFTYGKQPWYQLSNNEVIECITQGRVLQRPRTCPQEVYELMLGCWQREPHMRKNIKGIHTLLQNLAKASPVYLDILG
T4 sequence (Q16288 whole entry, the tested form may be a part): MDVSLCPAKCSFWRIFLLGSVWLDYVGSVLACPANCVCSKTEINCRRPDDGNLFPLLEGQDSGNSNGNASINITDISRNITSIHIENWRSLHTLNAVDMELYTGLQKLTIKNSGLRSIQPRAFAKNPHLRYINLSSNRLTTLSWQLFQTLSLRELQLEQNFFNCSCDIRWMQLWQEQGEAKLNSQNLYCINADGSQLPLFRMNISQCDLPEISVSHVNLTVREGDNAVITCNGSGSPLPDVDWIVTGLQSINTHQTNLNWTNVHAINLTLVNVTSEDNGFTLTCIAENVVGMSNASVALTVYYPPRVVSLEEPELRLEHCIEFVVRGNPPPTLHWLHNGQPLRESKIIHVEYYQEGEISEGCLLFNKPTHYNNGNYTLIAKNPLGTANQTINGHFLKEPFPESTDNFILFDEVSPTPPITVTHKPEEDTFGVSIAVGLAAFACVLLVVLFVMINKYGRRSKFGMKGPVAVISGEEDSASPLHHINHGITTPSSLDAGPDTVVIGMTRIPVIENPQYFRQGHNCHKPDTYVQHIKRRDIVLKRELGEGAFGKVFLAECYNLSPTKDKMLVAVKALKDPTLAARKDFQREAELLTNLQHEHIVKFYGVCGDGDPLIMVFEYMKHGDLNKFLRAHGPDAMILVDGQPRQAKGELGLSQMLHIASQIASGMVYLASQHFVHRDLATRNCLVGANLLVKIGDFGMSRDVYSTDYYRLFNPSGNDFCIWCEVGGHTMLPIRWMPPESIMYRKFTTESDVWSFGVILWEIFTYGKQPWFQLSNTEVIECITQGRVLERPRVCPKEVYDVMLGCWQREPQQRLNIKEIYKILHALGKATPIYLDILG

pIC50 (TRKC) | pIC50 (TRKB) | pIC50 (TRKA) | Compound | pIC50 (BaF3-CD74-NTRK1) | pIC50 (BaF3-ETV6-NTRK3) | pIC50 (BaF3-ETV6-NTRK2)
> 8.00 | > 8.00 | > 8.00 | Cc1cn(-c2cc(NC(=O)c3cccc(C#Cc4cnc5ccc(N6CCOCC6)nn45)c3C)cc(C(F)(F)F)c2)cn1 [XS3-91] | 7.00 to 8.00 | > 8.00 | 7.00 to 8.00
> 8.00 | 7.00 to 8.00 | 7.00 to 8.00 | Cc1c(C#Cc2cnc3ccc(N4CCC(N5CCOCC5)CC4)nn23)cccc1C(=O)Nc1cc(Cl)cc(C(F)(F)F)c1 [XS3-130, N-(3-CHLORO-5-(TRIFLUOROMETHYL)PHENYL)-2-METHYL-3-((6-(4-MORPHOLINPIPERIDIN-1-YL)IMIDAZO[1,2-B]PYRIDAZIN-3-YL)ETHYNYL)BENZAMIDE] | 7.00 to 8.00 | 7.00 to 8.00 | 7.00 to 8.00
7.00 to 8.00 | 7.00 to 8.00 | 7.00 to 8.00 | Cc1c(C#Cc2cnc3ccc(N4CCC(N(C)C)CC4)nn23)cccc1C(=O)Nc1cc(Cl)cc(C(F)(F)F)c1 [XS3-56, N-(3-CHLORO-5-(TRIFLUOROMETHYL)PHENYL)-3-((6-(4-(DIMETHYLAMINO)PIPERIDIN-1-YL)IMIDAZO[1,2-B]PYRIDAZIN-3-YL)ETHYNYL)-2-METHYLBENZAMIDE] | 6.00 to 7.00 | 7.00 to 8.00 | 6.00 to 7.00
> 8.00 | 7.00 to 8.00 | 7.00 to 8.00 | Cc1c(C#Cc2cnc3ccc(N4CCN(C)CC4)nn23)cccc1C(=O)Nc1cc(Cl)cc(C(F)(F)F)c1 [XS3-51, N-(3-CHLORO-5-(TRIFLUOROMETHYL)PHENYL)-2-METHYL-3-((6-(4-METHYLPIPERAZIN-1-YL)IMIDAZO[1,2-B]PYRIDAZIN-3-YL)ETHYNYL)BENZAMIDE] | 6.00 to 7.00 | 7.00 to 8.00 | 6.00 to 7.00
> 8.00 | 7.00 to 8.00 | 7.00 to 8.00 | Cc1c(C#Cc2cnc3ccc(N4CC[C@H](O)C4)nn23)cccc1C(=O)Nc1cc(CN2CCN(C)CC2)cc(C(F)(F)F)c1 [XS3-36, (S)-3-((6-(3-HYDROXYPYRROLIDIN-1-YL)IMIDAZO[1,2-B]PYRIDAZIN-3-YL)ETHYNYL)-2-METHYL-N-(3-((4-METHYLPIPERAZIN-1-YL)METHYL)-5-(TRIFLUOROMETHYL)PHENYL)BENZAMIDE] | 7.00 to 8.00 | 7.00 to 8.00 | 7.00 to 8.00
– | < 6.00 | 6.00 to 7.00 | Cc1c(C#Cc2cnc3cccnn23)cccc1C(=O)Nc1cccc(C(F)(F)F)c1 [XS2-106] | 6.00 to 7.00 | – | 6.00 to 7.00
6.00 to 7.00 | 6.00 to 7.00 | 6.00 to 7.00 | Cc1c(C#Cc2cnc3cccnn23)cccc1C(=O)Nc1cc(Cl)cc(C(F)(F)F)c1 [XS2-112, N-(3-CHLORO-5-(TRIFLUOROMETHYL)PHENYL)-3-(IMIDAZO[1,2-B]PYRIDAZIN-3-YLETHYNYL)-2-METHYLBENZENE FORMAMIDE] | 6.00 to 7.00 | 6.00 to 7.00 | 6.00 to 7.00
7.00 to 8.00 | – | 7.00 to 8.00 | Cc1c(C#Cc2cnc3ccc(N4CCOCC4)nn23)cccc1C(=O)Nc1cc(F)cc(C(F)(F)F)c1 [XS4-80] | 7.00 to 8.00 | 7.00 to 8.00 | 7.00 to 8.00
7.00 to 8.00 | 7.00 to 8.00 | 7.00 to 8.00 | Cc1c(C#Cc2cnc3ccc(N4CCOCC4)nn23)cccc1C(=O)Nc1cc(Cl)cc(C(F)(F)F)c1 [XS3-61, N-(3-CHLORO-5-(TRIFLUOROMETHYL)PHENYL)-2-METHYL-3-((6-MORPHOLINIMIDAZO[1,2-B]PYRIDAZINE-3-YL)ETHYNYL)BENZAMIDE] | 7.00 to 8.00 | 7.00 to 8.00 | –
7.00 to 8.00 | – | 7.00 to 8.00 | Cc1cc(NC(=O)c2cccc(C#Cc3cnc4ccc(N5CCOCC5)nn34)c2C)cc(C(F)(F)F)c1 [XS4-81] | 7.00 to 8.00 | > 8.00 | 7.00 to 8.00
6.00 to 7.00 | < 6.00 | 6.00 to 7.00 | Cc1c(C#Cc2cnc3cccnn23)cccc1C(=O)Nc1cc(F)cc(C(F)(F)F)c1 [XS2-109, N-(3-FLUORO-5-(TRIFLUOROMETHYL)PHENYL)-3-(IMIDAZO[1,2-B]PYRIDAZIN-3-YLETHYNYL)-2-METHYLBENZENE FORMAMIDE] | – | – | –
